Results: US11192890B2, “FGFR kinase inhibitors and pharmaceutical uses” (AUCKLAND UNISERVICES LIMITED, priority 2017, dated 2021)
Several values for one entry are separate records, joined by “and”; a condition that tells them apart may be missing. Equal entries are not always repeated.

Tests used:
[1] = system: FGFR4-amplified Hep3B hepatocellular carcinoma cells; assay: Cell proliferation assay (SRB); type: cell-based; settings: Homo sapiens, Hep3B; read-out: Cellular Anti-proliferative IC50, Hep3B
[2] = system: FGFR2 in SUM52 cells (phospho-ERK1/2); assay: Drug washout Western blot assay, SUM52 cells; type: cell-based; settings: for exposure concentration for irreversible inhibition (fully covalently bind the target) in cells: SUM52 (FGFR2), 30 minute exposure; for inhibition of phosphorylation of ERK1/2, no washout / phospho-ERK1/2 after extensive drug washout: 30 min; for inhibition of phosphorylation of ERK1/2, no washout: then FGF-stimulation; for phospho-ERK1/2 after extensive drug washout: washout prior to FGF-stimulation
Description: Cells were seeded on the day prior to drug treatment (1 million cells/well; 6-well plate).
Drug stocks were prepared in media using 1 mM or 10 mM DMSO stock solutions. Media was aspirated from each well and replaced with 2 ml of drug-free media for control wells or 2 ml of diluted drug for treated wells. Cells were exposed to drug for 30 min. Recombinant FGF (50 ng/well) was added to each well 15 minutes prior to the end of the drug exposure and protein was extracted as below.
Cells were exposed to drug for 30 min as above. Media was aspirated and each well was washed with 5 ml drug-free media. The wash media was aspirated and replaced with 2 ml drug-free media and cells incubated for a further 30 minutes, after which the wash protocol was repeated. Cells were incubated for a further 90 minutes in drug-free media. Recombinant FGF (50 ng/well) was added to each well 15 minutes prior to the end of the drug-free incubation and protein was extracted as below.
Cell lysates were prepared in 250 μL of RIPA lysis buffer containing protease inhibitor (1:100). After incubation on ice (30 min) and centrifugation (13,000 rpm, 5 min, 4° C.) the supernatants containing the proteins were stored (−20° C.) until required. Bicinchoninic acid (BCA) assay was used to determine the protein concentration of individual cell lysate samples.

[3] = biological target: T1, recombinant FGFR1 (C584S) kinase domain (Homo sapiens, UniProt P11362, C584S); assay: FGFR1 (C584S) covalent binding protein mass spectrometry assay; settings: protein:inhibitor 1:10, 37° C.
T1 construct: made in house; host or cells: pETDuet vector, IPTG induction in Terrific Broth (bacterial)
Description: The previously cloned C488A/C584S FGFR1 construct was modified by site-directed mutagenesis to provide a gene encoding the C584S FGFR1 kinase domain with the cysteine at amino acid C488 reinstated. Expression and purification of this protein followed the protocol described above but with the addition of 10% glycerol to all buffers and a change of buffer pH to a value of 8.5. Protein for mass spectrometry was concentrated to ˜40 mg/ml and was mixed 1:1 (v/v) with glycerol, and then frozen at −20° C. or flash cooled in liquid nitrogen and stored at −80° C. until needed.
Protein samples were buffer exchanged to remove glycerol (the final buffer comprised 20 mM Tris-HCl pH 8.5, 10% (v/v) glycerol, 20 mM NaCl, 5 mM EDTA, 2 mM TCEP) and were mixed with each inhibitor at 1:10 molar ratio (protein:inhibitor). Final protein concentration was 20 μM. […] Samples were mixed with 90 μL of 0.1% formic acid to quench the reaction followed by flash cooling in liquid nitrogen. Samples were stored at −80° C. until needed. All experiments were carried out in triplicate.
Samples were subjected to liquid chromatography mass spectrometry (LC-MS) to show mass changes attributable to irreversible inhibition. Mass spectrometry experiments were performed at the University of Auckland Mass Spectrometry Center using an electropspray QSTAR® XL ESI quadrupole Time-of-Flight (QToF) MS system (Applied Biosystems) operated in positive ionization mode. The instrument was calibrated using Renin Substrate Standard (SCIEX), over the m/z range 100-2000. Protein/inhibitor samples were thawed and 2 μL volumes injected into a liquid chromatography (LC) BIOshell™ A400 Protein C4 HPLC column (10 cm×2.1 mm, 3.4 μm) attached to the mass spectrometer. […] Following elution, samples were directly injected into the mass spectrometer for separation and mass analysis. Mass spectrometry data were processed and analysed using the PeakView™ 2.1 software and the Bio Tool Kit plug-in (SCIEX) and covered an m/z range of 330-1600. Deconvolution calculations allowed visualisation of intact mass protein peaks and allowed peak area measurement to assess the percentage of protein covalently modified by each inhibitor at each time point. Data was plotted using GraphPad Prism 7 (GraphPad).

[4] = system: FGFR1-amplified H520 non-small cell lung cancer cells; assay: Cell proliferation assay (SRB); type: cell-based; settings: Homo sapiens, NCI-H520, 168 h, read-out: Cellular Anti-proliferative IC50, H520
[5] = system: FGFR2-amplified SUM52 breast cancer cells; assay: Cell proliferation assay (SRB); type: cell-based; settings: SUM52, 120 h, read-out: Cellular Anti-proliferative IC50, SUM52, 5 days drug exposure
FGFR4 = biological target: T2, FGFR4 (Homo sapiens, UniProt P22455); assay: Isolated enzyme FRET-based Z-Lyte kinase inhibition assay; type: biochemical; settings: means from 3 independent experiments; read-out: Isolate Enzyme Inhibition IC50, FGFR4
T2 construct: purchased Invitrogen
Description: (§1) FGFR1-4 and the Z-Lyte Kinase Assay Kit were purchased from Invitrogen. The concentration gradients from 5.1×10^−11 to 1.0×10^−6 mol/L were used for all the test compounds. The experiments were performed according to the instructions of the manufacturer.
(§2) FGFR1-4 isolated enzyme activity was determined using the FRET-based Z-Lyte kinase inhibition assay. The data are the means from 3 independent experiments.

FGFR2 = biological target: T3, FGFR2 (Homo sapiens, UniProt P21802); assay: as above; type: biochemical; settings: means from 3 independent experiments; read-out: Isolate Enzyme Inhibition IC50, FGFR2
T3 construct: purchased Invitrogen
Description: as §1, §2

FGFR1 = biological target: T4, FGFR1 (Homo sapiens, UniProt P11362); assay: as above; type: biochemical; settings: means from 3 independent experiments; read-out: Isolate Enzyme Inhibition IC50, FGFR1
T4 construct: purchased Invitrogen
Description: as §1, §2

FGFR3 = biological target: T5, FGFR3 (Homo sapiens, UniProt P22607); assay: as above; type: biochemical; settings: means from 3 independent experiments; read-out: Isolate Enzyme Inhibition IC50, FGFR3
T5 construct: purchased Invitrogen
Description: as §1, §2

[6] = system: FGFR3-amplified SW780 bladder cancer cells; assay: Cell proliferation assay (SRB); settings: Homo sapiens, SW780, 120 h, read-out: Cellular Anti-proliferative IC50, SW780
[7] = system: FGFR1 in H520 cells (phospho-ERK1/2); assay: Drug washout Western blot assay, H520 cells; type: cell-based; settings: for exposure concentration for irreversible inhibition (fully covalently bind the target) in cells: H520 (FGFR1), 30 minute exposure; for inhibition of phosphorylation of ERK1/2, no washout / phospho-ERK1/2 after extensive drug washout: 30 min; for inhibition of phosphorylation of ERK1/2, no washout: then FGF-stimulation; for phospho-ERK1/2 after extensive drug washout: washout prior to FGF-stimulation; for reversible or irreversible inhibition of FGFR1 in cells: with and without washout
[8] = system: FGFR3 in SW780 cells (phospho-ERK1/2); assay: Drug washout Western blot assay, SW780 cells; type: cell-based; settings: for exposure concentration for irreversible inhibition (fully covalently bind the target) in cells: SW780 (FGFR3), 30 minute exposure; for inhibition of phosphorylation of ERK1/2, no washout / phospho-ERK1/2 after extensive drug washout / reversible or irreversible inhibition of FGFR3 in cells: SW780; for inhibition of phosphorylation of ERK1/2, no washout / phospho-ERK1/2 after extensive drug washout: 30 min; for inhibition of phosphorylation of ERK1/2, no washout: then FGF-stimulation; for phospho-ERK1/2 after extensive drug washout: washout prior to FGF-stimulation; for reversible or irreversible inhibition of FGFR3 in cells: with and without washout

T4 sequence (P11362 22-822): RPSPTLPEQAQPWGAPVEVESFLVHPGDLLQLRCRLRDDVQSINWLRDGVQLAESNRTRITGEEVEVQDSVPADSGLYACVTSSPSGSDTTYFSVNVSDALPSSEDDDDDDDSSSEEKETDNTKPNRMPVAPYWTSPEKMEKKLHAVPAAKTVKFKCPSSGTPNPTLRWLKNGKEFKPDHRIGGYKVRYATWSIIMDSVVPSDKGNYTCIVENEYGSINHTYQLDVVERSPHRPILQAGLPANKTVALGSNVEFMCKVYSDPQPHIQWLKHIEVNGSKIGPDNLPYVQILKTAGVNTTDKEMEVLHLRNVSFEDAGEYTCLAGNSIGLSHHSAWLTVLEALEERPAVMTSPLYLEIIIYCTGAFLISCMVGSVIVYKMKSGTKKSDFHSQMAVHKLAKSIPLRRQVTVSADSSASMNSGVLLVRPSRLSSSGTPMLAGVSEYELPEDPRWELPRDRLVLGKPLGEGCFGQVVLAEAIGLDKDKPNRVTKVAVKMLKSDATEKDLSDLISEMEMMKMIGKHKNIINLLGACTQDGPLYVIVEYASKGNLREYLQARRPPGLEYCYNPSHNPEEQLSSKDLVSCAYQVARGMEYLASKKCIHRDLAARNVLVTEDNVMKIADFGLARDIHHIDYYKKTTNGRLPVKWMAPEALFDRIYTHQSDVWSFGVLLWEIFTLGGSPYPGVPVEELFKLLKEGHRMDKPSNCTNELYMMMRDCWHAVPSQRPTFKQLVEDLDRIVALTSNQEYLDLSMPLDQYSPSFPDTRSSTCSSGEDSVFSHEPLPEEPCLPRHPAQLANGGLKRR
T3 sequence (P21802 22-821): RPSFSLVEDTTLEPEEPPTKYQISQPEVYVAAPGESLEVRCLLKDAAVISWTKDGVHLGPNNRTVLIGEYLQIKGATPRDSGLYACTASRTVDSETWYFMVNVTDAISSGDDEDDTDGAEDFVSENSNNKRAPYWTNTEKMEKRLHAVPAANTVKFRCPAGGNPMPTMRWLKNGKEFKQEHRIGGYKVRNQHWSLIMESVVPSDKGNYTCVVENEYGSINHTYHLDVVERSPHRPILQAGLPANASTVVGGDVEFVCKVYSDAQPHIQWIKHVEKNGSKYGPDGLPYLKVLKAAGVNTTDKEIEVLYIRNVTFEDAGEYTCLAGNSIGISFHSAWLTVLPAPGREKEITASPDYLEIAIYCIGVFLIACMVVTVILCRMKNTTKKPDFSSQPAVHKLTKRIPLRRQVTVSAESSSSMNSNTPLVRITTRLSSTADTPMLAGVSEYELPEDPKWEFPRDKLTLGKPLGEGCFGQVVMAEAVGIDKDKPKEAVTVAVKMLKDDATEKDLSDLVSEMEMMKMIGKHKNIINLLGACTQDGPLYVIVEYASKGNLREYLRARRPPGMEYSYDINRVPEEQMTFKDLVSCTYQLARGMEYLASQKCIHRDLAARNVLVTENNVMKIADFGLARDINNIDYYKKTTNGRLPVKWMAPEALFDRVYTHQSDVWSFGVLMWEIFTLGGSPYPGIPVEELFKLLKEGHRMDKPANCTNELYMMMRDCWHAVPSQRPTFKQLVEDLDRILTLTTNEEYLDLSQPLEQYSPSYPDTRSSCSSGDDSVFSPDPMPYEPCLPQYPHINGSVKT
T1 sequence (P11362 with tags, fused parts or gaps C584S): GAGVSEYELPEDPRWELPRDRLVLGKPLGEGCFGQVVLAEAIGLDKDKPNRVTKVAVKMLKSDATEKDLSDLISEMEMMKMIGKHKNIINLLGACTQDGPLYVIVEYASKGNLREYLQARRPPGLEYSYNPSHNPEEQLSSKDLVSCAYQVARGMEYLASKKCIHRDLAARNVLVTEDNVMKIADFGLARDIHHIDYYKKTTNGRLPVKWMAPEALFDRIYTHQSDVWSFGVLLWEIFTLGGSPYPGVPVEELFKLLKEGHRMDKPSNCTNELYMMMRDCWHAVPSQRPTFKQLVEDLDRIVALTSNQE
T2 sequence (P22455 22-802): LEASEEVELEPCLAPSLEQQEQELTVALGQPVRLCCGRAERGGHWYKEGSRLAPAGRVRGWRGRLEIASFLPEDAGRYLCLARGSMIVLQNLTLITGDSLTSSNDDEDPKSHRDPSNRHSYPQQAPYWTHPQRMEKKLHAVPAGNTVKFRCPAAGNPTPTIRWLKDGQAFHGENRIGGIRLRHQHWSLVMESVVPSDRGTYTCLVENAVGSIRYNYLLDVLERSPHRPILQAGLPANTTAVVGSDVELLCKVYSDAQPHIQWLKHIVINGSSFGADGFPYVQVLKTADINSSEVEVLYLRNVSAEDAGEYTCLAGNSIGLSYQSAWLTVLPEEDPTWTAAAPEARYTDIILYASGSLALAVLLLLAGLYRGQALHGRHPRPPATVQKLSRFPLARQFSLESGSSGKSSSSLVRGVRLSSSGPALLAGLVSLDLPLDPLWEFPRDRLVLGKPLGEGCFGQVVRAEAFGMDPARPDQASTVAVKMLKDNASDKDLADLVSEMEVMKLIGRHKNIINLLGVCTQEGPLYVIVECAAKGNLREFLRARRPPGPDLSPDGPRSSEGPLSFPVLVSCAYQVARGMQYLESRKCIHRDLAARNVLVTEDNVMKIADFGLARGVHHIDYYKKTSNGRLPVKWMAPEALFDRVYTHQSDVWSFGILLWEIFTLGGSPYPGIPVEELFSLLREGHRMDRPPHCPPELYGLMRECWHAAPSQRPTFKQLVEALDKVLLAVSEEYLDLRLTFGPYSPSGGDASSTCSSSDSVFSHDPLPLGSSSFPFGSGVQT
T5 sequence (P22607 23-806): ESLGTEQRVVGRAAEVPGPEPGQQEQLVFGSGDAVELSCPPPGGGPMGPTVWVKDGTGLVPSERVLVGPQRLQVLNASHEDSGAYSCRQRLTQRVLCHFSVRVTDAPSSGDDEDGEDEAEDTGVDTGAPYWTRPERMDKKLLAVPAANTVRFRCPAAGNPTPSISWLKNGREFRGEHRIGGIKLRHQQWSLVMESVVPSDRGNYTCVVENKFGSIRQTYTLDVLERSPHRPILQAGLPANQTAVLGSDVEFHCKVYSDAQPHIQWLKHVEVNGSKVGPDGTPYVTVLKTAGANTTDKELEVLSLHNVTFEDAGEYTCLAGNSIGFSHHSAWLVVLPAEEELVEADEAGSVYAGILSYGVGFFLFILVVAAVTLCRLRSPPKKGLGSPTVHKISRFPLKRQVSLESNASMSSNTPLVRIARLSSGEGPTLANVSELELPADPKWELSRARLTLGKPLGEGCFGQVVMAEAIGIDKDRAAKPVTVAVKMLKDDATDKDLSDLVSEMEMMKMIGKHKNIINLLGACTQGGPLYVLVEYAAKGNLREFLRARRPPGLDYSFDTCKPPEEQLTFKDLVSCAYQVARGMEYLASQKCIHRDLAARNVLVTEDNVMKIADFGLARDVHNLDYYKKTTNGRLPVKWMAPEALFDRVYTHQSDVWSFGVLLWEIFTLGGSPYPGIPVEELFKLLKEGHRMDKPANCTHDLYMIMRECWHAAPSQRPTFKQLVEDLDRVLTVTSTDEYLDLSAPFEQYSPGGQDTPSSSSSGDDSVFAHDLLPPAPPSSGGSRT

| Compound | IC50 [1] | exposure concentration for irreversible inhibition (fully covalently bind the target) in cells [2] | inhibition of phosphorylation of ERK1/2, no washout ([2]; SUM52, 100 nM) | phospho-ERK1/2 after extensive drug washout ([2]; SUM52, 100 nM) | phospho-ERK1/2 after extensive drug washout ([2]; SUM52, 1000 nM) | % Conversion to FGFR1 (C584S) covalent adduct after 120 minutes incubation [3] | IC50 [4] | IC50 [5] | IC50 (FGFR4) | IC50 (FGFR2) | IC50 (FGFR1) | IC50 (FGFR3) | IC50 [6] | exposure concentration for irreversible inhibition (fully covalently bind the target) in cells [7] | inhibition of phosphorylation of ERK1/2, no washout ([7]; H520, 100 nM) | phospho-ERK1/2 after extensive drug washout ([7]; H520, 100 nM) | phospho-ERK1/2 after extensive drug washout ([7]; H520, 1000 nM) | exposure concentration for irreversible inhibition (fully covalently bind the target) in cells [8] | inhibition of phosphorylation of ERK1/2, no washout ([8]; 100 nM) | phospho-ERK1/2 after extensive drug washout ([8]; 100 nM) | also measured |
| --- | --- | --- | --- | --- | --- | --- | --- | --- | --- | --- | --- | --- | --- | --- | --- | --- | --- | --- | --- | --- | --- |
| COc1cc(OC)c(Cl)c(N2Cc3cnc(Nc4ccccc4)nc3N([C@H]3CCN(C(=O)/C=C/CN(C)C)C3)C2=O)c1Cl [Compound 106, (S,E)-3-(2,6-dichloro-3,5-dimethoxyphenyl)-1-(1-(4-(dimethylamino)but-2-enoyl)pyrrolidin-3-yl)-7-(phenylamino)-3,4-dihydropyrimido[4,5-d]pyrimidin-2(1H)-one] | 5.5 nM | 100 nM | complete inhibition | fully inhibited | essential full inhibition | 11% | 11 nM | 0.5 nM | < 100 nM and 94 nM | 26 nM | 1.1 nM | 17 nM | 5 nM | 100 nM | complete inhibition | fully inhibited | essential full inhibition | 100 nM | complete inhibition | fully inhibited | reversible or irreversible inhibition of FGFR2 in cells ([2]; SUM52, 30 min exposure, 100 nM, with and without washout): potent irreversible inhibitor; reversible or irreversible inhibition of FGFR1 in cells ([7]; H520, 30 min exposure, 100 nM): potent irreversible inhibitor; phospho-ERK1/2 after extensive drug washout ([8]; 1000 nM): essential full inhibition; reversible or irreversible inhibition of FGFR3 in cells ([8]; 30 min exposure, 100 nM): potent irreversible inhibitor; reversible or irreversible inhibition of FGFR3 in cells ([8]; 120 minutes exposure, 100 nM): irreversible |
| COc1cc(OC)c(Cl)c(N2Cc3cnc(NC4CCCCC4)nc3N([C@H]3CCN(C(=O)/C=C/CN(C)C)C3)C2=O)c1Cl [Compound 105, (S,E)-7-(cyclohexylamino)-3-(2,6-dichloro-3,5-dimethoxyphenyl)-1-(1-(4-(dimethylamino)but-2-enoyl)pyrrolidin-3-yl)-3,4-dihydropyrimido[4,5-d]pyrimidin-2(1H)-one] | 80 nM | 1000 nM | complete inhibition | remained inhibited | essential full inhibition | 8% | 68 nM | 2.1 nM | 729 nM | 16 nM | 1.2 nM | 33 nM | 4 nM | 1000 nM | complete inhibition | partially inhibited | essential full inhibition | 1000 nM | complete inhibition | fully restored | phospho-ERK1/2 after extensive drug washout ([8]; 1000 nM): essential full inhibition |
| COc1cc(OC)c(Cl)c(N2Cc3cnc(NC(C)C)nc3N([C@H]3CCN(C(=O)/C=C/CN(C)C)C3)C2=O)c1Cl [Compound 104, (S,E)-3-(2,6-dichloro-3,5-dimethoxyphenyl)-1-(1-(4-(dimethylamino)but-2-enoyl)pyrrolidin-3-yl)-7-(isopropylamino)-3,4-dihydropyrimido[4,5-d]pyrimidin-2(1H)-one] | 12 nM | 1000 nM | complete inhibition | restoration | essential full inhibition | 8% | 17 nM | 1.4 nM | 906 nM | 23 nM | 1.1 nM | 35 nM | 11 nM | 1000 nM | complete inhibition | restoration | essential full inhibition | 1000 nM | complete inhibition | restoration | reversible or irreversible inhibition of FGFR1 in cells ([7]; H520, 2 hours exposure, 100, 300 and 600 nM): potent, irreversible inhibition; concentration required to suppress FGFR1 signalling through phospho-ERK1/2 ([7]; H520, 2 hours exposure, tested at 100, 300 and 600 nM): 300 nM; phospho-ERK1/2 after extensive drug washout ([8]; 1000 nM): essential full inhibition; reversible or irreversible inhibition of FGFR3 in cells ([8]; 120 minutes exposure, 100 nM): reversible |
